In ChEMBL document CHEMBL4396917, “Synthesis and biological evaluation of novel benzylidene-succinimide derivatives as noncytotoxic antiangiogenic inhibitors with anticolorectal cancer activity in vivo” (Eur J Med Chem, 2019):
Activity calls are given as the source filed them. The rule behind the calls is not given here.

Legend:
[1] = biological target: Vascular endothelial growth factor receptor 2 (Homo sapiens) (UniProt P35968); test: Inhibition of VEGFR2 in VEGF-stimulated HUVEC assessed as downregulation of FAK phosphorylation at Tyr925 residue at 1 to 10 uM pre-incubated for 2 hrs followed by VEGF stimulation and measured after 15 mins by Western blot analysis; assay type: cell-based
HT-29 = test: Antitumor activity against human HT-29 cells xenografted in mouse assessed as reduction in mTOR phosphorylation in tumor at 20 to 60 mg/kg, po administered every other day for 3 weeks and measured at 20 days post treatment by immunohistochemical staining; assay type: functional, organism-based

Chain of Vascular endothelial growth factor receptor 2 (Homo sapiens) (P35968 whole entry): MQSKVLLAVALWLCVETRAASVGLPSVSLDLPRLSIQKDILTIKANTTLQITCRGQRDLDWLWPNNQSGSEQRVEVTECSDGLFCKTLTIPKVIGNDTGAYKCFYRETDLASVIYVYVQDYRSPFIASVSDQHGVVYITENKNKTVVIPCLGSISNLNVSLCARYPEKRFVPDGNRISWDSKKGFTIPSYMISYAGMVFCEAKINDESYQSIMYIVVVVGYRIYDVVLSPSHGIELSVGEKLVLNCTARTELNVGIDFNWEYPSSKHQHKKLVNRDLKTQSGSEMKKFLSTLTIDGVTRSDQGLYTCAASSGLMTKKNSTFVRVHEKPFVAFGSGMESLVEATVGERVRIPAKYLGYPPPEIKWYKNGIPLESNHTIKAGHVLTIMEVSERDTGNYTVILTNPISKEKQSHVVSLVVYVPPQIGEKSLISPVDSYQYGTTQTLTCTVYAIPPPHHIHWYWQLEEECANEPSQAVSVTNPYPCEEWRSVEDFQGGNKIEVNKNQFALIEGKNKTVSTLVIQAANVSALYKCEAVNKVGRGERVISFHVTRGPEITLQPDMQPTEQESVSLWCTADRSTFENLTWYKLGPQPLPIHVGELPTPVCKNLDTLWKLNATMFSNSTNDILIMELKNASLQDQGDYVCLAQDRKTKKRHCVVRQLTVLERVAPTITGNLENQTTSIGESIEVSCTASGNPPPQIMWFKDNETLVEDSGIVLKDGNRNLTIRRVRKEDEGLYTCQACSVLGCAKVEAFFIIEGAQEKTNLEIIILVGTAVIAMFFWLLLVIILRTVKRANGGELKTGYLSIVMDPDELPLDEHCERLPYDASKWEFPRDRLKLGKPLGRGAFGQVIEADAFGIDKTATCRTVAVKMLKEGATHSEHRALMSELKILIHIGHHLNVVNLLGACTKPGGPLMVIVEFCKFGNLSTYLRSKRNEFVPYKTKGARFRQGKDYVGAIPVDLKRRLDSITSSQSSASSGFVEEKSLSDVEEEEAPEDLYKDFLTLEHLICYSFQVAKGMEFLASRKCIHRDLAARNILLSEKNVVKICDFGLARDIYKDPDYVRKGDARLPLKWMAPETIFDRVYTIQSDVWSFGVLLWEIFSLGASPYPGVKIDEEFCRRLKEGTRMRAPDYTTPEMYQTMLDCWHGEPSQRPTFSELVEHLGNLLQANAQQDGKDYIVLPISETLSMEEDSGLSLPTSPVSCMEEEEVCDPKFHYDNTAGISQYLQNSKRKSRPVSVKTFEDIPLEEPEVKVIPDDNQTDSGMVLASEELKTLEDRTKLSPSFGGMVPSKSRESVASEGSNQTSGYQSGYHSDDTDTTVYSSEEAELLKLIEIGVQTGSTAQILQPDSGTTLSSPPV

COc1ccc(NC(=O)c2cccc(/C=C3\CC(=O)N(c4ccc(C)cc4)C3=O)c2)cc1
inhibition [1]: Active | inhibition (HT-29): Active
